Test results taken from PubChem BioAssay AID2060907 (Molecular Pharmacology Branch, DTP, NCI, 2025).

Tested on: 388556-164-R-J1-PDC complex spheroid viability
Assay: Anticancer human tumor 388556-164-R-J1-PDC patient-derived colon adenocarcinoma cell line growth inhibition [RAS]
Conditions: for IC50: curve of first compound; for viability, T/C: stronger effect = lower value
In short: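 Agents were tested in combination matrices in half-log decrements from a top concentration at or near clinical Cmax (10 microM if undetermined). Targets were multi-cell spheroids of tumour lines plus HUVEC and MSC stromal cells.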
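Note: spheroids exposed to compound for 7 days before readout.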
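Throughout, for viability, T/C: 100% = DMSO vehicle control luminescence.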

`CCc1c2c(nc3ccc(O)cc13)-c1cc3c(c(=O)n1C2)COC(=O)[C@]3(O)CC` + CCn1c(-c2cccnc2C(C)OC)c2c3cc(ccc31)N1CCOC(CC(NC(=O)C(C(C)C)N(C)C(=O)C3(F)CCN(C(=O)C#CC(C)(C)N(C)C)CC3)C(=O)N3CCCC(N3)C(=O)OCC(C)(C)C2)C1 was tested. Which IC50 (second compound 0.000949 µM) did it give?
The IC50 was 68 nM.

And the IC50 (second compound 0.003 µM)?
The IC50 was 74.5 nM.

What about the IC50 (second compound 0.00949 µM) of the same molecule?
Its IC50 is 72 nM.

And the IC50 (second compound 0.03 µM)?
The IC50 was 86.1 nM.

What about the IC50 (second compound 0.0949 µM) of the same molecule?
Its IC50 is 69.5 nM.

What about the IC50 (second compound 0.3 µM) of the same molecule?
The IC50 was 46.7 nM.

And the viability, T/C (second compound 0.000949 µM, first compound 0.000949 µM)?
Its viability, T/C is 107%.

And the viability, T/C (second compound 0.000949 µM, first compound 0.003 µM)?
The viability, T/C was 98.7%.

And the viability, T/C (second compound 0.000949 µM, first compound 0.00949 µM)?
The viability, T/C was 87.1%.

And the viability, T/C (second compound 0.000949 µM, first compound 0.03 µM)?
The viability, T/C was 62.1%.

And the viability, T/C (second compound 0.000949 µM, first compound 0.0949 µM)?
The viability, T/C was 45.8%.

What about the viability, T/C (second compound 0.000949 µM, first compound 0.3 µM) of the same molecule?
The viability, T/C was 32.1%.

What about the viability, T/C (second compound 0.003 µM, first compound 0.000949 µM) of the same molecule?
The viability, T/C was 111%.

What about the viability, T/C (second compound 0.003 µM, first compound 0.003 µM) of the same molecule?
Its viability, T/C is 88.7%.

And the viability, T/C (second compound 0.003 µM, first compound 0.00949 µM)?
The viability, T/C was 83.6%.

And the viability, T/C (second compound 0.003 µM, first compound 0.03 µM)?
The viability, T/C was 61.4%.

And the viability, T/C (second compound 0.003 µM, first compound 0.0949 µM)?
Its viability, T/C is 47.3%.

What about the viability, T/C (second compound 0.003 µM, first compound 0.3 µM) of the same molecule?
The viability, T/C was 29.1%.

What about the viability, T/C (second compound 0.00949 µM, first compound 0.000949 µM) of the same molecule?
The viability, T/C was 104%.

And the viability, T/C (second compound 0.00949 µM, first compound 0.003 µM)?
Its viability, T/C is 96.5%.

And the viability, T/C (second compound 0.00949 µM, first compound 0.00949 µM)?
Its viability, T/C is 83.8%.

What about the viability, T/C (second compound 0.00949 µM, first compound 0.03 µM) of the same molecule?
The viability, T/C was 63.6%.

What about the viability, T/C (second compound 0.00949 µM, first compound 0.0949 µM) of the same molecule?
The viability, T/C was 46.2%.

What about the viability, T/C (second compound 0.00949 µM, first compound 0.3 µM) of the same molecule?
Its viability, T/C is 31.1%.

And the viability, T/C (second compound 0.03 µM, first compound 0.000949 µM)?
The viability, T/C was 106%.

And the viability, T/C (second compound 0.03 µM, first compound 0.003 µM)?
The viability, T/C was 96.8%.

And the viability, T/C (second compound 0.03 µM, first compound 0.00949 µM)?
The viability, T/C was 78.2%.

What about the viability, T/C (second compound 0.03 µM, first compound 0.03 µM) of the same molecule?
Its viability, T/C is 65.5%.

What about the viability, T/C (second compound 0.03 µM, first compound 0.0949 µM) of the same molecule?
Its viability, T/C is 52.7%.

And the viability, T/C (second compound 0.03 µM, first compound 0.3 µM)?
Its viability, T/C is 27%.

What about the viability, T/C (second compound 0.0949 µM, first compound 0.000949 µM) of the same molecule?
The viability, T/C was 93.3%.

And the viability, T/C (second compound 0.0949 µM, first compound 0.003 µM)?
The viability, T/C was 90%.

What about the viability, T/C (second compound 0.0949 µM, first compound 0.00949 µM) of the same molecule?
Its viability, T/C is 80.4%.

What about the viability, T/C (second compound 0.0949 µM, first compound 0.03 µM) of the same molecule?
The viability, T/C was 63.7%.

What about the viability, T/C (second compound 0.0949 µM, first compound 0.0949 µM) of the same molecule?
Its viability, T/C is 45.3%.

What about the viability, T/C (second compound 0.0949 µM, first compound 0.3 µM) of the same molecule?
The viability, T/C was 25.5%.

What about the viability, T/C (second compound 0.3 µM, first compound 0.000949 µM) of the same molecule?
The viability, T/C was 92.4%.

What about the viability, T/C (second compound 0.3 µM, first compound 0.003 µM) of the same molecule?
The viability, T/C was 89.7%.

What about the viability, T/C (second compound 0.3 µM, first compound 0.00949 µM) of the same molecule?
Its viability, T/C is 72.2%.

And the viability, T/C (second compound 0.3 µM, first compound 0.03 µM)?
Its viability, T/C is 57.3%.

What about the viability, T/C (second compound 0.3 µM, first compound 0.0949 µM) of the same molecule?
Its viability, T/C is 39.1%.

What about the viability, T/C (second compound 0.3 µM, first compound 0.3 µM) of the same molecule?
The viability, T/C was 21.4%.

Which IC50 (second compound 0.0316 µM) does the source give for `C=CC(=O)Nc1cc(Nc2nccc(-c3cn(C)c4ccccc34)n2)c(OC)cc1N(C)CCN(C)C` + C#Cc1c(F)ccc2cc(O)cc(-c3ncc4c(N5CC6CCC(C5)N6)nc(OCC56CCCN5CC(F)C6)nc4c3F)c12 here?
The IC50 was over 1000 nM.

What about the IC50 (second compound 0.1 µM) of the same molecule?
Its IC50 is over 1000 nM.

And the IC50 (second compound 0.316 µM)?
Its IC50 is 765 nM.

And the IC50 (second compound 1 µM)?
Its IC50 is 401 nM.

What about the IC50 (second compound 3.16 µM) of the same molecule?
The IC50 was 287 nM.

What about the IC50 (second compound 10 µM) of the same molecule?
The IC50 was 125 nM.

What about the viability, T/C (second compound 0.0316 µM, first compound 0.00316 µM) of the same molecule?
The viability, T/C was 114%.

What about the viability, T/C (second compound 0.0316 µM, first compound 0.01 µM) of the same molecule?
Its viability, T/C is 98.3%.

What about the viability, T/C (second compound 0.0316 µM, first compound 0.0316 µM) of the same molecule?
The viability, T/C was 111%.

And the viability, T/C (second compound 0.0316 µM, first compound 0.1 µM)?
Its viability, T/C is 92.2%.

And the viability, T/C (second compound 0.0316 µM, first compound 0.316 µM)?
Its viability, T/C is 78.9%.

And the viability, T/C (second compound 0.0316 µM, first compound 1 µM)?
Its viability, T/C is 57.1%.

What about the viability, T/C (second compound 0.1 µM, first compound 0.00316 µM) of the same molecule?
Its viability, T/C is 110%.

And the viability, T/C (second compound 0.1 µM, first compound 0.01 µM)?
Its viability, T/C is 98%.

And the viability, T/C (second compound 0.1 µM, first compound 0.0316 µM)?
The viability, T/C was 105%.

What about the viability, T/C (second compound 0.1 µM, first compound 0.1 µM) of the same molecule?
Its viability, T/C is 94.5%.

And the viability, T/C (second compound 0.1 µM, first compound 0.316 µM)?
Its viability, T/C is 74.5%.

What about the viability, T/C (second compound 0.1 µM, first compound 1 µM) of the same molecule?
Its viability, T/C is 57.8%.

And the viability, T/C (second compound 0.316 µM, first compound 0.00316 µM)?
Its viability, T/C is 98.4%.

And the viability, T/C (second compound 0.316 µM, first compound 0.01 µM)?
The viability, T/C was 103%.

What about the viability, T/C (second compound 0.316 µM, first compound 0.0316 µM) of the same molecule?
Its viability, T/C is 80.7%.

And the viability, T/C (second compound 0.316 µM, first compound 0.1 µM)?
The viability, T/C was 92%.

What about the viability, T/C (second compound 0.316 µM, first compound 0.316 µM) of the same molecule?
The viability, T/C was 72.8%.

What about the viability, T/C (second compound 0.316 µM, first compound 1 µM) of the same molecule?
Its viability, T/C is 42.5%.

What about the viability, T/C (second compound 1 µM, first compound 0.00316 µM) of the same molecule?
The viability, T/C was 91.2%.

And the viability, T/C (second compound 1 µM, first compound 0.01 µM)?
Its viability, T/C is 99.6%.

What about the viability, T/C (second compound 1 µM, first compound 0.0316 µM) of the same molecule?
The viability, T/C was 60.5%.

And the viability, T/C (second compound 1 µM, first compound 0.1 µM)?
The viability, T/C was 73.7%.

What about the viability, T/C (second compound 1 µM, first compound 0.316 µM) of the same molecule?
Its viability, T/C is 61.1%.

What about the viability, T/C (second compound 1 µM, first compound 1 µM) of the same molecule?
Its viability, T/C is 29.8%.

What about the viability, T/C (second compound 3.16 µM, first compound 0.00316 µM) of the same molecule?
Its viability, T/C is 90.2%.

And the viability, T/C (second compound 3.16 µM, first compound 0.01 µM)?
Its viability, T/C is 70.8%.

What about the viability, T/C (second compound 3.16 µM, first compound 0.0316 µM) of the same molecule?
Its viability, T/C is 87.3%.

What about the viability, T/C (second compound 3.16 µM, first compound 0.1 µM) of the same molecule?
The viability, T/C was 69%.

What about the viability, T/C (second compound 3.16 µM, first compound 0.316 µM) of the same molecule?
The viability, T/C was 48.5%.

And the viability, T/C (second compound 3.16 µM, first compound 1 µM)?
The viability, T/C was 19.8%.

And the viability, T/C (second compound 10 µM, first compound 0.00316 µM)?
The viability, T/C was 67.4%.

And the viability, T/C (second compound 10 µM, first compound 0.01 µM)?
The viability, T/C was 81.5%.

And the viability, T/C (second compound 10 µM, first compound 0.0316 µM)?
The viability, T/C was 64.1%.

What about the viability, T/C (second compound 10 µM, first compound 0.1 µM) of the same molecule?
Its viability, T/C is 56.2%.

And the viability, T/C (second compound 10 µM, first compound 0.316 µM)?
The viability, T/C was 30.8%.

What about the viability, T/C (second compound 10 µM, first compound 1 µM) of the same molecule?
The viability, T/C was 24.6%.
